In PubChem BioAssay (NCI) one finds GI50 and TGI data, which are given here for eight compounds.

Structures are written as SMILES.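 Five compound concentrations were applied to cells in 96-well plates for 48 hours; endpoints were derived by simple linear interpolation of the resulting dose-response curve. GI50 marks 50% less growth. At the TGI there is no net growth.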

Among the test systems are IGROV1 ovarian; SF-539 CNS; OVCAR-4 ovarian; SW-620 colon; T-47D breast; A498 renal; K-562 leukemia; BT-549 breast; LOX IMVI melanoma; HOP-62 NSCLC.
What all share (assay): inhibition of tumour cell growth, NCI panel, 48 h

Turning to `O=C(Nc1cccc(Cl)c1Cl)c1cccc(NC2=C(Cl)C(=O)N(Cc3ccccc3)C2=O)c1`, the GI50 in the experiment on IGROV1 ovarian was 11.7 µM; with SF-539 CNS, 9.87 µM; with OVCAR-4 ovarian, 57.7 µM; in the experiment with SW-620 colon it was 20.1 µM; in the experiment on T-47D breast it was more than 100 µM; with A498 renal, 36.1 µM. Moreover, the GI50 with K-562 leukemia is 5.32 µM; in the experiment with BT-549 breast, 15.7 µM; in the experiment on LOX IMVI melanoma, 13.1 µM; in the experiment with HOP-62 NSCLC, more than 100 µM. The TGI with IGROV1 ovarian is 59.6 µM; in the experiment with SF-539 CNS, 40.6 µM; in the experiment on OVCAR-4 ovarian it was more than 100 µM; in the experiment with SW-620 colon, more than 100 µM; in the experiment with T-47D breast, more than 100 µM; in the experiment with A498 renal, more than 100 µM. Moreover, the TGI in the experiment on K-562 leukemia is 37.5 µM; in the experiment on BT-549 breast it was 84.5 µM; with LOX IMVI melanoma, more than 100 µM; with HOP-62 NSCLC, more than 100 µM.
Consider `CC(=O)Oc1ccc(Nc2c3ccccc3nc3ccccc23)cc1`, for which the GI50 in the experiment with IGROV1 ovarian was 1.15 µM; with SF-539 CNS, 1.63 µM; in the experiment on OVCAR-4 ovarian it was 1.74 µM; in the experiment with SW-620 colon, 0.747 µM; in the experiment with T-47D breast it was 1.72 µM; in the experiment with A498 renal, 0.322 µM. Besides, the GI50 in the experiment with K-562 leukemia was 1.45 µM; with BT-549 breast it was 2.77 µM; in the experiment with LOX IMVI melanoma it was 0.736 µM; in the experiment on HOP-62 NSCLC, 0.971 µM. Further, the TGI in the experiment with IGROV1 ovarian amounted to 6.98 µM; in the experiment on SF-539 CNS, 6.24 µM; with OVCAR-4 ovarian, 5.93 µM; with SW-620 colon, 2.58 µM; in the experiment on T-47D breast, 7.23 µM; in the experiment on A498 renal, 1.88 µM. In addition, the TGI in the experiment on K-562 leukemia was more than 100 µM; with BT-549 breast it was 13.5 µM; in the experiment on LOX IMVI melanoma, 2.03 µM; in the experiment with HOP-62 NSCLC, 3.48 µM.
As for `CN1CCc2c(Sc3ccc(C(=O)NO)cc3)c3ccccc3n2C1`, the GI50 in the experiment with IGROV1 ovarian was 2.84 µM; with SF-539 CNS it was 1.42 µM; with OVCAR-4 ovarian, 1.92 µM; with SW-620 colon, 1.92 µM; with T-47D breast, 1.62 µM; in the experiment on A498 renal it was 0.185 µM. The GI50 in the experiment on K-562 leukemia was 2.91 µM; with BT-549 breast, 2.39 µM; with LOX IMVI melanoma, 1.64 µM; in the experiment on HOP-62 NSCLC, 1.97 µM. In addition, the TGI is 9.06 µM with IGROV1 ovarian; 3.11 µM with SF-539 CNS; 8.6 µM in the experiment on OVCAR-4 ovarian; 5.22 µM in the experiment with SW-620 colon; 5.84 µM with T-47D breast; 2.44 µM in the experiment on A498 renal. In addition, the TGI is more than 33 µM in the experiment on K-562 leukemia, 6.19 µM in the experiment on BT-549 breast, 3.57 µM in the experiment on LOX IMVI melanoma and 6.12 µM in the experiment on HOP-62 NSCLC.
For the compound `COc1ccc(/C=c2/sc3n(c2=O)C(c2ccc(OC)c(OC)c2)C2=C(N=3)c3cc(F)ccc3OC2)cc1` (stereo not given), the GI50 with IGROV1 ovarian was 9.71 µM; with SF-539 CNS, 43 µM; in the experiment with OVCAR-4 ovarian, more than 23.2 µM; with SW-620 colon it was 50.5 µM; in the experiment with T-47D breast, 4.42 µM; in the experiment with A498 renal, 45.6 µM. Further, the GI50 in the experiment on K-562 leukemia was 19.9 µM; in the experiment with BT-549 breast it was 46.2 µM; with LOX IMVI melanoma it was 23 µM; with HOP-62 NSCLC it was 37.7 µM. Besides, the TGI is more than 26.5 µM in the experiment on IGROV1 ovarian; more than 100 µM in the experiment with SF-539 CNS; more than 74.1 µM with OVCAR-4 ovarian; more than 100 µM with SW-620 colon; 39.6 µM with T-47D breast; more than 80.9 µM with A498 renal. Further, the TGI in the experiment with K-562 leukemia was more than 100 µM; with BT-549 breast, more than 100 µM; in the experiment on LOX IMVI melanoma, 50.7 µM; in the experiment on HOP-62 NSCLC it was more than 100 µM.
Turning to `O=C(N/N=C\c1cc(Br)ccc1O)c1ccncc1`, the GI50 was 3.51 µM in the experiment on IGROV1 ovarian; 2.93 µM in the experiment with SF-539 CNS; 0.814 µM in the experiment with OVCAR-4 ovarian; 2.66 µM in the experiment on SW-620 colon; 2.19 µM with T-47D breast; 5.82 µM in the experiment on A498 renal. In addition, the GI50 is 3.37 µM in the experiment on K-562 leukemia, 2.57 µM in the experiment on BT-549 breast, 1.07 µM with LOX IMVI melanoma and 1.57 µM with HOP-62 NSCLC. Moreover, the TGI in the experiment on IGROV1 ovarian was more than 100 µM; in the experiment with SF-539 CNS it was 48.7 µM; with OVCAR-4 ovarian it was 33.3 µM; with SW-620 colon, more than 100 µM; in the experiment with T-47D breast, 62.5 µM; in the experiment on A498 renal, 77.3 µM. Further, the TGI was more than 100 µM in the experiment with K-562 leukemia, 40.8 µM in the experiment on BT-549 breast, 94.7 µM in the experiment with LOX IMVI melanoma and 66.2 µM in the experiment on HOP-62 NSCLC.
Consider `CSC1(CC(=O)N(C)C)C(=O)Nc2ccccc21` (stereo not given), for which the TGI with IGROV1 ovarian, in the experiment with SF-539 CNS, with OVCAR-4 ovarian, with SW-620 colon, with T-47D breast and in the experiment on A498 renal was more than 100 µM throughout. Moreover, the TGI in the experiment on K-562 leukemia, in the experiment on BT-549 breast, with LOX IMVI melanoma and in the experiment with HOP-62 NSCLC was more than 100 µM in each case.
With `O=C(O)c1cc(O)c2c(c1)C(C1c3cc(C(=O)O)cc(O)c3C(=O)c3c(OC4OC(CO)C(O)C(O)C4O)cccc31)c1cccc(OC3OC(CO)C(O)C(O)C3O)c1C2=O` (stereo not given), the GI50 with IGROV1 ovarian, in the experiment with SF-539 CNS, with OVCAR-4 ovarian, in the experiment with SW-620 colon, in the experiment on T-47D breast and in the experiment on A498 renal was more than 100 µM each time. The GI50 in the experiment with K-562 leukemia, in the experiment with BT-549 breast, in the experiment with LOX IMVI melanoma and with HOP-62 NSCLC was more than 100 µM in each case. The TGI in the experiment with IGROV1 ovarian, in the experiment on SF-539 CNS, in the experiment on OVCAR-4 ovarian, with SW-620 colon, with T-47D breast and in the experiment on A498 renal was more than 100 µM each time. The TGI with K-562 leukemia, in the experiment with BT-549 breast, with LOX IMVI melanoma and in the experiment on HOP-62 NSCLC was more than 100 µM each time.
Take `N#CC1(C2SCCS2=O)C2=C(C(=O)c3ccccc3C2=O)N2CCCC21` (stereo not given): the TGI with IGROV1 ovarian is 5.76 µM; with SF-539 CNS it was 9.11 µM; in the experiment with OVCAR-4 ovarian, 4.09 µM; in the experiment with SW-620 colon, 6.41 µM; with T-47D breast, 8.16 µM; in the experiment on A498 renal, 13 µM. The TGI in the experiment with K-562 leukemia is 25.7 µM; in the experiment with BT-549 breast, 4.3 µM; in the experiment with LOX IMVI melanoma, 6.53 µM; in the experiment on HOP-62 NSCLC, 14.9 µM.
